# Assay results published in PMC8698759, “Gold(I) Complexes Bearing Alkylated 1,3,5-Triaza-7-phosphaadamantane Ligands as Thermoresponsive Anticancer Agents in Human Colon Cells” (Biomedicines, 2021).
# Legend:
# Human fibroblast cells = test: MTT cytotoxicity assay on fibroblasts; assay type: cell-based; conditions: for fibroblasts viability when treated at the IC50 value in Caco-2: 3a 2.5 µM, 3b 5.1 µM, 2a 12.3 µM, 2b 10.5 µM; for Selectivity Index (SI): IC50 fibroblasts/IC50 Caco-2; for IC50: MTT, mean ± SE
# Procedure: Human Caco-2 cell line (TC7 clone) was kindly provided by Dr. Edith Brot-Laroche (Université Pierre et Marie Curie-Paris 6, UMR S 872, Les Cordeliers, France). Human fibroblast cells were kindly provided by Dr. Julio Montoya (Unidad de Bioquímica, Facultad de Veterinaria, Universidad de Zaragoza, Spain). Caco-2 cells (passages 40–70) and fibroblasts (passages 10–30) were maintained in a humidified atmosphere of 5% CO2 at 37 °C. Cells were grown in Dulbecco’s Modified Eagles medium (DMEM) (Gibco Invitrogen, Paisley, UK) supplemented with 20% fetal bovine serum (FBS), 1% non-essential amino acids, 1% penicillin (1000 U/mL), 1% streptomycin (1000 μg/mL) and 1% amphotericin (250 U/mL). The cells were passaged enzymatically with 0.25% trypsin-1 mM EDTA. Caco-2 cells were sub-cultured on 25 cm^2 plastic flasks at a density of 1.2 × 10^4 cells/cm^2, while fibroblasts were sub-cultured on 75 cm^2 plastic flasks at a density of 1 × 10^4 cells/cm^2. Culture medium was replaced every 2 days.
# Gold complex was diluted in dimethyl sulfoxide (DMSO) to a stock solution at 20 mM and then re-diluted to a working solution at 2.5 mM before diluting it in cell culture medium to treat cells at desired concentrations.
# For cytotoxicity screening assays, Caco-2 cells were seeded in 96-well plates at a density of 4 × 10^3 cells/well. Culture medium was replaced with medium containing drug panel 24 h post-seeding and cells were incubated for 72 h. In fibroblasts, culture medium containing metal gold complexes was added 10 days post-seeding. Antiproliferative effect was measured with MTT assay as previously described by Mármol et al.. Absorbance at 540/620 nm was measured with SPECTROstar Nano (BMG Labtech). To determine the selectivity index (SI) the IC50 value in fibroblasts was divided by IC50 value in Caco-2, obtaining a ratio cancerous/normal cells toxicity.
# Caco-2 cells = test: Mitochondrial membrane potential assay by flow cytometry (DilC1); assay type: cell-based, human; conditions: Caco-2, 48 h; 3a 5.0 µM, 3b 10.2 µM
# Procedure: Caco-2 cells were seeded in 75 cm^2 flasks at a density of 1 × 10^4 cells/cm^2 and 24 h post-seeding medium was replaced with medium containing drug panel and incubated for 48 h. Then. cells were washed twice and resuspended in PBS at a concentration of 10^6 cells/mL before incubation with 5 µL of 10 µM 1,1′,3,3,3′-hexamethylindodicarbo-cyanine iodide (DilC1).
smiles,measurement,setting,value
"FC(F)(F)C(F)(F)C(F)(F)C(F)(F)C(F)(F)C(F)(F)CC[N+]12CN3CN(C1)C[P+]([Au-][S]c1ccccn1)(C3)C2.O=S(=O)([O-])C(F)(F)F [Complex 3b, [Au(C5H5NS)(PTA-CH2CH2(CF2)5CF3)](TfO)]",fibroblasts viability when treated at the IC50 value in Caco-2,Human fibroblast cells,did not compromise fibroblasts viability
same,Selectivity Index (SI),Human fibroblast cells,2.51
same,IC50,Human fibroblast cells,12.8 ± 1.48 µM
same,mitochondrial depolarisation (cells with reduced ΔΨm),Caco-2 cells,induced mitochondrion depolarisation
"CCCCCCCC[N+]12CN3CN(C1)C[P+]([Au-][S]c1ccccn1)(C3)C2.[I-] [Complex 3a, [Au(C5H5NS)(PTA-CH2(CH2)6CH3)]I]",fibroblasts viability when treated at the IC50 value in Caco-2,Human fibroblast cells,did not compromise fibroblasts viability
same,Selectivity Index (SI),Human fibroblast cells,4.86
same,IC50,Human fibroblast cells,12.11 ± 0.11 µM
same,mitochondrial depolarisation (cells with reduced ΔΨm),Caco-2 cells,induced mitochondrion depolarisation
